In patent publication US4970228A, “Novel aminoalkyl-substituted heterocyclic sulfur compounds” (Merrell Dow Pharmaceuticals, priority 1989, dated 1990):

How the values were obtained:
[1] = tested on: spontaneously hypertensive rats; experiment: Antihypertensive activity in vivo: continuous recording of arterial blood pressure in unanesthetized spontaneously hypertensive rats; design: Max Change MBP: unit not given here; settings: for % Lowering MBP / Max Change MBP: dosed as tosylate salt, MBP = mean blood pressure
Procedure: The ability of the compounds of this invention to lower blood pressure can be determined in vivo by using standard and well-known procedures such as those employed in the continuous recording of arterial blood pressure in conscious animals. For instance, test compounds are administered intraperitoneally (ip) to unanesthetized, spontaneously hypertensive rats and the arterial blood pressure is monitored continuously. In tests utilizing the above described procedure, the antihypertensive effects of the test compounds are readily apparent as indicated by the degree of lowering of mean blood pressure (MBP) noted in Table II.
*Dose was administered as mg/kg tosylate salt.

[2] = target: T1, dopamine-β-hydroxylase (DBH) (Bos taurus, UniProt P15101); experiment: DBH inhibition kinetics: conversion of tyramine to octopamine, HPLC with fluorometric quantitation; assay type: biochemical
T1 sequence (P15101 1-610): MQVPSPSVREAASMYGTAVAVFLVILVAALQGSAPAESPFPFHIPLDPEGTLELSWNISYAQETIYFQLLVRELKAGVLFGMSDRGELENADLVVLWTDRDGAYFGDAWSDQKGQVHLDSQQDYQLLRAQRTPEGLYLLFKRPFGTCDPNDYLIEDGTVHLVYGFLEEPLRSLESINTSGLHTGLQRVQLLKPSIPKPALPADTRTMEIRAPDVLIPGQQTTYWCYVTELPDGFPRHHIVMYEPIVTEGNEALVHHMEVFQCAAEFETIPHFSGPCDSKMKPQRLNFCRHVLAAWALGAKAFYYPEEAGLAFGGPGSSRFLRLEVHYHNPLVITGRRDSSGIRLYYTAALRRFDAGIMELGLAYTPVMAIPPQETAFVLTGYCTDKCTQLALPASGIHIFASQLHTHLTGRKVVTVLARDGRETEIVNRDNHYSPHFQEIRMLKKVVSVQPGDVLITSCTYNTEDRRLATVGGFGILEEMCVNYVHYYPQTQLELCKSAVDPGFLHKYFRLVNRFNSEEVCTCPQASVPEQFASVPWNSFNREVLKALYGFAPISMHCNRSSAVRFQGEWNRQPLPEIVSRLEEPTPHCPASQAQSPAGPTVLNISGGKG
Text: The DBH inhibitory properties of the compounds of this invention can also readily be determined in vitro by standard and well known procedures for assaying the conversion of tyramine to octopamine in the presence of DBH, such as the procedure set forth by Feilchenfeld, N. B., Richter, H. W. and Waddell, W. H. in "Time-Resolved Assay of Dopamine Beta Hydroxylase Activity Utilizing High-Pressure Liquid Chromatography", Analyt. Biochem., 122, 124-128 (1982). Determination of the kinetics of DBH inhibition is exemplified by a procedure where the enzyme-assisted conversion of tyramine to octopamine is determined by incubating varying concentrations of test compound with constant concentrations of substrate, enzyme (DBH), molecular oxygen, an electron donor such as ascorbate and the necessary cofactors for the enzyme at optimal temperature and pH. After incubation, the product is separated out by high-performance liquid chromatography and quantitated fluorometrically, from which an inhibition constant (ki) can readily be calculated.

[3] = target: T1, dopamine-β-hydroxylase (DBH); experiment: Time-dependent DBH inhibitory activity in vitro (oxygen uptake, tyramine as substrate); assay type: biochemical
Procedure: Since DBH is a major enzyme in the synthetic pathway of norepinephrine (NE), the presence of a DBH inhibitor would act to decrease the amount of NE produced, and thereby have an antihypertensive effect. The DBH inhibitory properties of the compounds of this invention can readily be determined by standard and well-known procedures. […] The test compound is added at the desired concentration, and the system is incubated. Aliquots are taken at different time intervals and DBH activity is measured using tyramine as the substrate. The reaction is followed by measuring oxygen uptake using a polarographic electrode and an oxygen monitor by the method of S. May, et al., J. Biol. Chem., 256, 2258 (1981).
t 1/2: time required for 50% log activity remaining

Row | Compound | % Lowering MBP ([1]; 200 mg/kg ip) | Max Change MBP ([1]; 200 mg/kg ip) | % Lowering MBP ([1]; 100 mg/kg ip) | Max Change MBP ([1]; 100 mg/kg ip) | Activity in the time-dependent DBH inhibition assay (in words) [3] | further results
1 | CC(N)C=C1SCCS1 (stereo not shown) [Compound 3 (Table I), 1-(1,3-dithiolan-2-ylidene)-2-propanamine] | 17.3% | -30 +/-13 | – | – | – | –
2 | NCCC1SCCS1 [1,3-Dithiolane-2-ethanamine] | – | – | – | – | – | DBH inhibitory activity (in words) ([2]; judged from ki): potent activity as a DBH inhibitor; Ki ([2]; tyramine to octopamine conversion, read-out: ki (inhibition constant), DBH): 11 µM
3 | NC/C=C1/CCCS1 [(Z)-2-(Dihydro-2(3H)-thienylidene)ethanamine] | – | – | 28.6% | -54 +/-21 | not active | In vivo antihypertensive activity (in words) ([1]; ip, spontaneously hypertensive rats): active as an in vivo antihypertensive agent
4 | NC/C=C1\CCCS1 [Compound 4 (Table I), (E)-2-(dihydro-2(3H)-thienylidene)ethanamine] | – | – | 30.0% | -55 +/-22 | – | –
5 | NCC=C1SCCS1 [Compound 1 (Table I), 2-(1,3-dithiolan-2-ylidene)ethanamine] | 21.7% | -39 +/-13 | – | – | most active compound of the compounds tested | –
